These are literature values, as cited in US20170065526A1, “SOLID DOSAGE FORM OF RIVAROXABAN AND METHODS FOR MAKING THE SAME” (priority 2015, published 2017).

The conditions of this series: relatively poor solubility, background statement.

Converted amounts (≈) assume the structure as drawn.

As a reminder, the solubility is how much of the substance goes into solution per volume. For `O=C(NC[C@H]1CN(c2ccc(N3CCOCC3=O)cc2)C(=O)O1)c1ccc(Cl)s1` [rivaroxaban, (S)-5-chloro-N-{[2-oxo-3-[4-(3-oxomorpholin-4-yl)phenyl]oxazolidin-5-yl]methyl}thiophene-2-carboxamide], the solubility is on record as approximately 7 mg/L (≈ 16.1 µM).
